Source: BindingDB's records for patent US20260055079 (Azkarra Therapeutics, 2026)

Experiments:
[1] = target: T1, Protein mono-ADP-ribosyltransferase TIPARP (Homo sapiens, UniProt Q7Z3E1); experiment: PARP7 Biochemical Assay
T1 sequence (Q7Z3E1 whole entry): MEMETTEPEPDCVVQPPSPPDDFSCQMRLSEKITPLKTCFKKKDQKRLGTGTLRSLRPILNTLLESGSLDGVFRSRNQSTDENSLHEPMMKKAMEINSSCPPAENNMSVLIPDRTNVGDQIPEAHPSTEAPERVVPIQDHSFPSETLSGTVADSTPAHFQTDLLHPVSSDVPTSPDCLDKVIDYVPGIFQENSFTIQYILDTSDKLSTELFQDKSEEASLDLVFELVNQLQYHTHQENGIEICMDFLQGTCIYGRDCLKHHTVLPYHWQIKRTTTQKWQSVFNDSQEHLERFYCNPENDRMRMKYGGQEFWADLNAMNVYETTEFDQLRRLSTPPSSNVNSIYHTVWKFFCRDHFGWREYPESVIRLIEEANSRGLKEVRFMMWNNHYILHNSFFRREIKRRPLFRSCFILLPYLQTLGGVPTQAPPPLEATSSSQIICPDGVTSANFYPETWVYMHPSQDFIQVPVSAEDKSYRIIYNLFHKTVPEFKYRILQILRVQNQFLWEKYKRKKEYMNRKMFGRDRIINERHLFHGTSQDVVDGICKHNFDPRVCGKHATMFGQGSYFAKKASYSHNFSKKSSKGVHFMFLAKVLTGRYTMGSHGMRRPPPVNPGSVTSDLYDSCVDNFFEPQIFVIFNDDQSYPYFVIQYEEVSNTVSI
Method: 23 μL of 100 nM His-GST-PARP7 in PARP buffer for reaction (PBR) (50 mM HEPES pH 7.5, 100 mM NaCl, 4 mM MgCl2, 0.2 mM TCEP) was added to each well of XpressBio GSH-coated 384 well plates and incubated for 1 h at RT. The plate was then washed for 3 times in 50 μL PBST (1×PBS, 0.02% Tween-20), followed by one wash in 1×PBS and one wash PBR. Each wash was incubated for 3 min. After washing, varying concentrations of each inhibitor was pre-incubated with 20 μM (2×) 6-a-NAD+. The solution was added to the plate, diluted to 1× in PBR, and incubated at 30° C. for 90 min. Following the enzymatic reaction, the plate was washed 3 times in PBST, once in PBS for 3 min each wash. The wells were then subjected to 25 μL of click reaction buffer consisting of 100 μM TBTA, 1 mM CuSO4, 100 μM Biotin-N3, 2 mM TCEP made up in 1×PBS. The wells were incubated in click reaction buffer for 30 min at 30° C. The click buffer was removed, and the plate was washed 3 times with PBST and once with PBS as before. The plate was then blocked with 5% BSA in PBST. The plate was then washed 3 times with PBST and once with PBS. To develop, the plate was incubated with 25 μL of 0.05 ng/μL Step-HRP with 0.02% BSA in PBS. The plate was washed 3 times with PBS before developing with QuantaRed per manufacturer directions. Fluorescence (Excitation 550 nm. Emission 620 nm) was immediately read using a Paradigm Plate Reader.

[2] = target: Poly [ADP-ribose] polymerase 2 (Homo sapiens, UniProt Q9UGN5); experiment: Protocol for the PARP1 and PARP2 Biochemical Assays
Method: (§1) Each wash was incubated for 3 min. After washing, varying concentrations of each inhibitor was pre-incubated with 20 μM (2×) 6-a-NAD+. 25 μL of the 2×6-a-NAD+/inhibitor mixture was added to the plate with 25 μL of 20 nM of PARP1 or PARP2 in PBR with 0.1 mg/mL Activated DNA (Sigma). PARP final concentration 10 nM. The reaction mixture was incubated at 30° C. for 1 h. The plate was then washed 3 time with PBST and once with PBS. The wells were subjected to a 50 μL click reaction consisting of 100 μM TBTA, 1 mM CuSO4. 100 μM Biotin-N3, 2 mM TCEP made up in 1×PBS at RT for 30 min. The plate was then washed 3 times with PBST before blocking in 100 μL of 1% Milk (Carnation) in PBST at RT for 30 min. The plate was again washed 3 times with PBST and once with PBS before incubation with Strep-HRP (0.05 ng/μL Strep-HRP (Fisher Scientific), 300 ng/μL BSA, 1×PBS) for 30 min at RT. The plate was washed 3 time in PBST and once with PBS before development with QuantaRed (Pierce) per manufacturer directions.

[3] = target: Poly [ADP-ribose] polymerase 1 (Homo sapiens, UniProt P09874); experiment: as above
Method: as §1

Chain of Poly [ADP-ribose] polymerase 2 (Q9UGN5 whole entry): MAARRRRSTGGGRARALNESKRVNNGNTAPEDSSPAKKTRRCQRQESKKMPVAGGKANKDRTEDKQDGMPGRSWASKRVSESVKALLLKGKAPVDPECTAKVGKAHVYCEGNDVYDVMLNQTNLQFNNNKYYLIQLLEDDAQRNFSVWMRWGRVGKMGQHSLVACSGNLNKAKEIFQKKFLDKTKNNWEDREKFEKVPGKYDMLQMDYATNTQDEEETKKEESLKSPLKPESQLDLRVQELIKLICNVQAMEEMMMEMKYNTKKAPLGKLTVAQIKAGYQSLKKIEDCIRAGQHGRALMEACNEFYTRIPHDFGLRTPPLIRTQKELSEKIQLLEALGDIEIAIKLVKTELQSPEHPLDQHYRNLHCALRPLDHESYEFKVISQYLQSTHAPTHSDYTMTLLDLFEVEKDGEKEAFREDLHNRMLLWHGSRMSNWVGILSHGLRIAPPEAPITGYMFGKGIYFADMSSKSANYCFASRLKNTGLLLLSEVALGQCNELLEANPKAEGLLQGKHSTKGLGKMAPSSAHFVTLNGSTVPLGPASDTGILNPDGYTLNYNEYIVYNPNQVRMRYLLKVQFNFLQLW
Chain of Poly [ADP-ribose] polymerase 1 (P09874 whole entry): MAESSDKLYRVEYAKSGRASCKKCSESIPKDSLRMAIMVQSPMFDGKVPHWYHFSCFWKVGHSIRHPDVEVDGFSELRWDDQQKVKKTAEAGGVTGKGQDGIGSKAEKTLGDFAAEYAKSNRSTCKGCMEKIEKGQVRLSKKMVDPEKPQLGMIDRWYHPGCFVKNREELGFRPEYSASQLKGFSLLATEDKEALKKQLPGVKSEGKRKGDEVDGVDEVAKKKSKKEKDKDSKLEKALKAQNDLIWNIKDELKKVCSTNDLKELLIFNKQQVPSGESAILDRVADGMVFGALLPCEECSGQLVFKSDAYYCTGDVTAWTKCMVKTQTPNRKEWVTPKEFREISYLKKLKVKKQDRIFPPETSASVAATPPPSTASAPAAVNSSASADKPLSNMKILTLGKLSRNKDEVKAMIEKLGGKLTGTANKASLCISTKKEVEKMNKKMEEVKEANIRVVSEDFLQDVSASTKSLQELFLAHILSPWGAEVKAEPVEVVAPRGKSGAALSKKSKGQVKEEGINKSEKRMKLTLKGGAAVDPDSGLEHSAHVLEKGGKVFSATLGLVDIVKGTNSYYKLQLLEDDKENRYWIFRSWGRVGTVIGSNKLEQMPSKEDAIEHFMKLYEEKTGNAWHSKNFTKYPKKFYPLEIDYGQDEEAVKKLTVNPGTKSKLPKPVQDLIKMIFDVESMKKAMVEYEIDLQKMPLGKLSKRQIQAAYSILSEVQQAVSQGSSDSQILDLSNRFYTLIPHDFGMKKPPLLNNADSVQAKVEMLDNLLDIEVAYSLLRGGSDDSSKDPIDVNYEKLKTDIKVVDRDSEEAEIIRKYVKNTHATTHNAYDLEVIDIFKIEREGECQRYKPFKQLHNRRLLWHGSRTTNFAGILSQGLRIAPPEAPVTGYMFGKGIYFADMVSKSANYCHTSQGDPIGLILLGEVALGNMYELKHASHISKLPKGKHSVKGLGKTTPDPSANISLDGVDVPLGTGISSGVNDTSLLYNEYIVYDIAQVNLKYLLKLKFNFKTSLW

Structure (SMILES) | IC50 [1] [nM] | IC50 [2] [nM] | IC50 [3] [nM]
N#Cc1ccc(N2CCN(C(=O)c3cc(Cc4n[nH]c(=O)c5ccc(/C=C/C(F)(F)F)cc45)ccc3F)CC2)nc1 [US20260055079, Example 27] | < 50 | – | –
CC#Cc1ccc2c(=O)[nH]nc(Cc3ccc(F)c(C(=O)N4CCN(c5ncc(C(F)(F)F)cn5)CC4)c3)c2c1 [US20260055079, Example 48] | – | > 2000 | –
N#Cc1cnc(N2CCN(C(=O)c3cc(Cc4n[nH]c(=O)c5ccc(OC6CCC6)cc45)ccc3F)CC2)cc1C(F)(F)F [US20260055079, Example 132] | < 50 | > 2000 | > 2000

Other lines, results leading:

IC50 [1] [nM] | IC50 [2] [nM] | IC50 [3] [nM] | Structure (SMILES)
< 50 | – | – | N#Cc1ccc(N2CCN(C(=O)c3cc(Cc4n[nH]c(=O)c5ccc(CCC(F)(F)F)cc45)ccc3F)CC2)nc1 [US20260055079, Example 25]
< 50 | – | – | CCc1ccc2c(=O)[nH]nc(Cc3ccc(F)c(C(=O)N4CCN(c5ncc(C(F)(F)F)cn5)CC4)c3)c2c1 [US20260055079, Example 43]
